What was measured:
HER2 WT = biological target: T1, HER2 WT (Homo sapiens, UniProt P04626); experiment: Enzymatic assay HER2 WT (method a); type: biochemical; conditions: [HER2 WT]=12.5 nM, [ATP]=25 μM, [Peptide 22]=1 μM
T1 construct: purchased ProQinase, Freiburg, Germany ERBB2 0108-0000-1
Outline: (§1)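 Microfluidic mobility-shift kinase assay with Peptide 22 (1 μM) in HEPES pH 7.5, MnCl2, MgCl2, Tween 20, TCEP. HER2 WT 12.5 nM and HER2 YVMA 5 nM each used 25 μM ATP; EGFR WT 2 nM used 1 mM ATP. IC50 came from initial-velocity (0–3600 s) percent inhibition, fitted to a variable-slope model.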

EGFR WT = biological target: T2, EGFR WT (Homo sapiens, UniProt P00533); experiment: Enzymatic assay EGFR WT (method c); type: biochemical; conditions: [EGFR WT]=2 nM, [ATP]=1 mM, [Peptide 22]=1 μM
T2 construct: purchased Thermo Fisher, Carlsbad, CA ERBB1 PR7295B
Outline: as §1

[1] = biological target: T3, HER2 wildtype (WT) protein (Homo sapiens, UniProt P04626); experiment: HER2 signaling (pHER2 Tyr1248/total HER2 MSD) in BT474 cells; type: cell-based; conditions: 1.5 hr compound, 1% FBS
T3 construct: BT474 and N87 cell lines which endogenously overexpress the HER2 wildtype (WT) protein; endogenous in cells; host or cells: BT474, N87
Outline: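 BT474, N87 (HER2 WT) and NCI-H1781 (HER2 G776delinsVC) cells were treated for 1.5 h at 37° C in 1% FBS medium with compound at 0.0005–1.1 μM. pHER2 Tyr1248 was measured by MSD on whole-cell lysates and normalized to total HER2 as % DMSO. EC50 came from a variable-slope sigmoidal fit.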

HER2YVMA = HER2YVMA (Homo sapiens, UniProt P04626, INS775YVMA); experiment: Enzymatic assay HER2YVMA (method b); type: biochemical; design: purchased Viva biotech, Shanghai, China custom purification; conditions: [HER2YVMA]=5 nM, [ATP]=25 μM, [Peptide 22]=1 μM
Outline: as §1

T1 sequence (P04626 23-1255): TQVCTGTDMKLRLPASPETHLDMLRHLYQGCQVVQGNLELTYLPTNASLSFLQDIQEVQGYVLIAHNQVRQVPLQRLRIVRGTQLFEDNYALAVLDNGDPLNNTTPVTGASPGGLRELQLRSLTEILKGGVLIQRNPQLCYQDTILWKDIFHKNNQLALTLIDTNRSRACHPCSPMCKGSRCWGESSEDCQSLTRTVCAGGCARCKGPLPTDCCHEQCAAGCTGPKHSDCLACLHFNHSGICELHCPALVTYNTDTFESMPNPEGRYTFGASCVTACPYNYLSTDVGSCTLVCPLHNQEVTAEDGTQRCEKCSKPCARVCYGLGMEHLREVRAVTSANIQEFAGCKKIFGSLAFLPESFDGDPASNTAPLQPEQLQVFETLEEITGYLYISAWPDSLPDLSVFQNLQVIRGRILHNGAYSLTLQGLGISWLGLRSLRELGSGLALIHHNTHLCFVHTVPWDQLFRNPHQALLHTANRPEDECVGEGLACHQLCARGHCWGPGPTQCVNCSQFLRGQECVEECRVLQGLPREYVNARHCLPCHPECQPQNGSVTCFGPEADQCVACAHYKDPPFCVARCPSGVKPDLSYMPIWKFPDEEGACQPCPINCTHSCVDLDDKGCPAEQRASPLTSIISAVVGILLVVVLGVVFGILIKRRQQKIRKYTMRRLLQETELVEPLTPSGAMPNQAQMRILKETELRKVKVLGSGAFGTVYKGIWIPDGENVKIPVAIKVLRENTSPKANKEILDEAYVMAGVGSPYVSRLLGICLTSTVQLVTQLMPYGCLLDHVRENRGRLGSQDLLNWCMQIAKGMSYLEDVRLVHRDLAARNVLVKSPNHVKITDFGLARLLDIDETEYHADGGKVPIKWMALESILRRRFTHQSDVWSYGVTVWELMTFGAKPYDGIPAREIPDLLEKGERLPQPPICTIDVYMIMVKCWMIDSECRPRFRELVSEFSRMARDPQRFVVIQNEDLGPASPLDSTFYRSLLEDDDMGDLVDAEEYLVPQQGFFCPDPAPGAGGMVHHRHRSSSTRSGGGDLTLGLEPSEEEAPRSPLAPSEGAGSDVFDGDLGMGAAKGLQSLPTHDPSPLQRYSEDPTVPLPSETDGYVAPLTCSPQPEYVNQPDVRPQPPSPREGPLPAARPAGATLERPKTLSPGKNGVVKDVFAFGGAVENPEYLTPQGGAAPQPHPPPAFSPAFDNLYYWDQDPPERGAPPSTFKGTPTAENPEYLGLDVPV
T3 sequence (P04626 23-1255): as above
HER2YVMA, sequence (P04626 with tags, fused parts or gaps INS775YVMA): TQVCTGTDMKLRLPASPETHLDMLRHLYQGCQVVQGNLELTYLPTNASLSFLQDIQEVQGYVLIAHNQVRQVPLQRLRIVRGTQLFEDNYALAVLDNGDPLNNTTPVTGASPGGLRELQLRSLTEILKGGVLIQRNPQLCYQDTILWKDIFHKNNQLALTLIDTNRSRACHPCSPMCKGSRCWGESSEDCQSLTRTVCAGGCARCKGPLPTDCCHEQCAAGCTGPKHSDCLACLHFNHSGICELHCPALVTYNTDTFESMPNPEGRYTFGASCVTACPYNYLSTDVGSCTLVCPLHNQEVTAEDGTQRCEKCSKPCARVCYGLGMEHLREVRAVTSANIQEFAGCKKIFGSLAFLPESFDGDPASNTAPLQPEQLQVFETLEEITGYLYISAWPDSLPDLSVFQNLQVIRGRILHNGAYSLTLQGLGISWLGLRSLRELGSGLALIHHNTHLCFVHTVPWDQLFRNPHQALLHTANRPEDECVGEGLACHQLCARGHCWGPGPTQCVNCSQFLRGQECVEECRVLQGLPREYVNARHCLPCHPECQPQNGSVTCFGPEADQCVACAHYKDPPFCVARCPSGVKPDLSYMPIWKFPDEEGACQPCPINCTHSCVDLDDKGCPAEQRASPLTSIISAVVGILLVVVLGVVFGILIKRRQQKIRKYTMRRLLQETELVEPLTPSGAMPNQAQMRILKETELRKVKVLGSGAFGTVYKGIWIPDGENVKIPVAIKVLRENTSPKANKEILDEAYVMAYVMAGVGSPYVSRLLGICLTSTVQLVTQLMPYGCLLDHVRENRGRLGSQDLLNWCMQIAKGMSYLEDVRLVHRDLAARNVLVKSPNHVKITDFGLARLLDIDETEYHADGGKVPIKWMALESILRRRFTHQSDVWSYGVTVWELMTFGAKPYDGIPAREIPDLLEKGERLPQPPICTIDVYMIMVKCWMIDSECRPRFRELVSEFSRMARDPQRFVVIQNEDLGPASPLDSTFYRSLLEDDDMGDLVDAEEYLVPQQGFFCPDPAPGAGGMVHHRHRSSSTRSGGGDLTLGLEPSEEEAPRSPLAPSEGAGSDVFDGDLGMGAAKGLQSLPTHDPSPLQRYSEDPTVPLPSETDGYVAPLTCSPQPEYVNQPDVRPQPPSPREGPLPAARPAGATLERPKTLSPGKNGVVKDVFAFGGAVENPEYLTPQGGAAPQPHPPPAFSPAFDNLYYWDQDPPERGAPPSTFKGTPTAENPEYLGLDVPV
T2 sequence (P00533 25-1210): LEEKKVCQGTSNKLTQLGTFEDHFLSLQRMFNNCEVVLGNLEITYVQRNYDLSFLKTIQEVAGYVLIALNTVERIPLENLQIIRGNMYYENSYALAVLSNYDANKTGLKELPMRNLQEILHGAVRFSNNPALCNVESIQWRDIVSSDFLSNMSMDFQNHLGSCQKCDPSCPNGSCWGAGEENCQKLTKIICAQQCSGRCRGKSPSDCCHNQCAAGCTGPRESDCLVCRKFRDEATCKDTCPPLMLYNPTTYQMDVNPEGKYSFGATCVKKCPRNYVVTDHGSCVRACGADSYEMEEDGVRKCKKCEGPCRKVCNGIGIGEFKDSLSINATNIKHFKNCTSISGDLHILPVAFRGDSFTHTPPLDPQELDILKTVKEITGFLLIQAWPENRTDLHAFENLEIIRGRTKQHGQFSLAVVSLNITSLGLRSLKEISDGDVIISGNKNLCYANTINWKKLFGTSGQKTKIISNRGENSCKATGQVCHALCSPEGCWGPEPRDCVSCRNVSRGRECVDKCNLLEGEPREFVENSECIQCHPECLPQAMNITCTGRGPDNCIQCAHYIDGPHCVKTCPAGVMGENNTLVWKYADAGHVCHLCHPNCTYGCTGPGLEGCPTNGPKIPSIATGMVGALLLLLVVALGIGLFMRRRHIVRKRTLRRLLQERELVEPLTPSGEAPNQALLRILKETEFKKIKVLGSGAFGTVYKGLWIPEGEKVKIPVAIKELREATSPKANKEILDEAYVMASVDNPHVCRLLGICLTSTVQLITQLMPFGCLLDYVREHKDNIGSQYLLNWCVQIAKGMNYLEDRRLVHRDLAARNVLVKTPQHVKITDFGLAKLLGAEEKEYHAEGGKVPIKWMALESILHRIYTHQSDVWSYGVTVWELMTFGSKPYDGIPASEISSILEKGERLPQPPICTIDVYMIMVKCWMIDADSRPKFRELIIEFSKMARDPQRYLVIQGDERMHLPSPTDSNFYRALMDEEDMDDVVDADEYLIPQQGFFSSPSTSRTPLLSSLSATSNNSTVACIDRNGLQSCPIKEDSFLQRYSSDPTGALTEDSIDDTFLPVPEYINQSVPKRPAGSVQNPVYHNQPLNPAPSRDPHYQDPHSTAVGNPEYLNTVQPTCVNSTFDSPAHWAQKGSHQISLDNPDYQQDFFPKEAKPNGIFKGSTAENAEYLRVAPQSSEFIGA

IC50 (HER2 WT) [nM]	IC50 (EGFR WT) [µM]	EC50 [1] [nM]	IC50 (HER2YVMA) [nM]	SMILES
< 100	> 10	< 100	< 100	Cc1ccc(Oc2ccc(Nc3ncnc4sc5c(c34)CCN(C(=O)/C=C/CN3CCC[C@H](n4cccn4)C3)C5)cc2C)cn1 [Compound 112]
< 100	> 10	< 100	< 100	Cc1ccc(Oc2ccc(Nc3ncnc4sc5c(c34)CCN(C(=O)/C=C/CN3CCCC(c4nccs4)C3)C5)cc2C)cn1 (stereo not drawn) [Compound 113]
< 100	> 10	< 100	< 100	Cc1ccc(Oc2ccc(Nc3ncnc4sc5c(c34)CCN(C(=O)/C=C/CN3CCC(O)C(C)(C)C3)C5)cc2C)cn1 (stereo not drawn) [Compound 114]
< 100	> 10	< 100	< 100	Cc1ccc(Oc2ccc(Nc3ncnc4sc5c(c34)CCN(C(=O)/C=C/CN3CCCC34CCC4)C5)cc2C)cn1 [Compound 115]
< 100	> 10	< 100	< 100	Cc1ccc(Oc2ccc(Nc3ncnc4sc5c(c34)CCN(C(=O)/C=C/CN3CC(C)OC(C)C3C)C5)cc2C)cn1 (stereo not drawn) [Compound 117]
< 100	> 10	< 100	< 100	Cc1ccc(Oc2ccc(Nc3ncnc4sc5c(c34)CCN(C(=O)/C=C/CN3CC4CC4(CO)C3)C5)cc2C)cn1 (stereo not drawn) [Compound 118]
< 100	> 10	< 100	< 100	Cc1ccc(Oc2ccc(Nc3ncnc4sc5c(c34)CCN(C(=O)/C=C/CN3CCCCC3(C)CO)C5)cc2C)cn1 (stereo not drawn) [Compound 119]
< 100	> 10	< 100	< 100	Cc1ccc(Oc2ccc(Nc3ncnc4sc5c(c34)CCN(C(=O)/C=C/CN3C[C@H]4C[C@@H]3CC4C#N)C5)cc2C)cn1 (stereo partly drawn) [Compound 120]
1000 to 10000	> 10	< 100	100 to 1000	Cc1ccc(Oc2ccc(Nc3ncnc4sc5c(c34)CCN(C(=O)/C=C/CN3CC(C)(C)OC(C)(C)C3)C5)cc2C)cn1 [Compound 121]
< 100	> 10	< 100	< 100	CC[C@H](NC/C=C/C(=O)N1CCc2c(sc3ncnc(Nc4ccc(Oc5ccc(C)nc5)c(C)c4)c23)C1)C(F)(F)F [Compound 122]
< 100	> 10	< 100	< 100	Cc1ccc(Oc2ccc(Nc3ncnc4sc5c(c34)CCN(C(=O)/C=C/CN3CC4(CCCC4)C3)C5)cc2C)cn1 [Compound 123]
< 100	> 10	< 100	< 100	Cc1ccc(Oc2ccc(Nc3ncnc4sc5c(c34)CCN(C(=O)/C=C/CN3CC[C@H](F)C3)C5)cc2C)cn1 [Compound 124]
100 to 1000	> 10	< 100	< 100	COc1ccc(Oc2ccc(Nc3ncnc4sc5c(c34)CN(C(=O)/C=C/CN(C)C)C5)cc2C)cn1 [Compound 128, (E)-4-(dimethylamino)-1-(4-((4-((6-methoxypyridin-3-yl)oxy)-3-methylphenyl)amino)-5,7-dihydro-6H-pyrrolo[3′,4′:4,5]thieno[2,3-d]pyrimidin-6-yl)but-2-en-1-one]
< 100	> 10	< 100	< 100	Cc1ccc(Oc2ccc(Nc3ncnc4sc5c(c34)CN(C(=O)/C=C/CN(C)C)C5)cc2Cl)cn1 [Compound 129, (E)-1-(4-((3-Chloro-4-((6-methylpyridin-3-yl)oxy)phenyl)amino)-5H-pyrrolo[3′,4′:4,5]thieno[2,3-d]pyrimidin-6(7H)-yl)-4-(dimethylamino)but-2-en-1-one]
< 100	> 10	< 100	< 100	Cc1cc(Nc2ncnc3sc4c(c23)CN(C(=O)/C=C/CN(C)C)C4)ccc1Oc1ccn2ncnc2c1 [Compound 130, (E)-1-(4-((4-([1,2,4]Triazolo[1,5-a]pyridin-7-yloxy)-3-methylphenyl)amino)-5H-pyrrolo[3′,4′:4,5]thieno[2,3-d]pyrimidin-6(7H)-yl)-4-(dimethylamino)but-2-en-1-one]
< 100	1 to 10	< 100	< 100	CCN(CC)C/C=C/C(=O)N1CCc2c(sc3ncnc(Nc4ccc(Oc5ccc(C)nc5)c(C)c4)c23)C1 [Compound 131]
< 100	1 to 10	< 100	< 100	Cc1ccc(Oc2ccc(Nc3ncnc4sc5c(c34)CCN(C(=O)/C=C/CN3CC[C@@H](CO)C3)C5)cc2C)cn1 [Compound 132]
< 100	> 10	< 100	< 100	Cc1ccc(Oc2ccc(Nc3ncnc4sc5c(c34)CCN(C(=O)/C=C/CN3CC[C@H](CO)C3)C5)cc2C)cn1 [Compound 133]
< 100	1 to 10	100 to 350	< 100	Cc1ccc(Oc2ccc(Nc3ncnc4sc5c(c34)CCN(C(=O)/C=C/CN3CC(CO)(CO)C3)C5)cc2C)cn1 [Compound 134]
< 100	> 10	< 100	< 100	Cc1ccc(Oc2ccc(Nc3ncnc4sc5c(c34)CCN(C(=O)/C=C/CN3CCC(CO)(CO)CC3)C5)cc2C)cn1 [Compound 135]
< 100	> 10	< 100	< 100	Cc1ccc(Oc2ccc(Nc3ncnc4sc5c(c34)CCN(C(=O)/C=C/CN3CCO[C@H](CO)C3)C5)cc2C)cn1 [Compound 136]
< 100	> 10	< 100	< 100	CCN(CC)C/C=C/C(=O)N1CCc2c(sc3ncnc(Nc4ccc(Oc5ccc(OC)nc5)c(C)c4)c23)C1 [Compound 137]
< 100	> 10	< 100	< 100	Cc1cc(Nc2ncnc3sc4c(c23)CCN(C(=O)/C=C/CN(C)C)C4)ccc1Oc1ccn2ncnc2c1 [Compound 138, (E)-1-(4-((4-([1,2,4]triazolo[1,5-a]pyridin-7-yloxy)-3-methylphenyl)amino)-5,8-dihydropyrido[4′,3′:4,5]thieno[2,3-d]pyrimidin-7(6H)-yl)-4-(dimethylamino)but-2-en-1-one]
< 100	> 10	< 100	< 100	C#CCOCCN(C)C/C=C/C(=O)N1CCc2c(sc3ncnc(Nc4ccc(Oc5ccc(C)nc5)c(C)c4)c23)C1 [Compound 139]
< 100	> 10	< 100	< 100	COc1ccc(Oc2ccc(Nc3ncnc4sc5c(c34)CCN(C(=O)/C=C/CN3CC[C@H](CO)C3)C5)cc2C)cn1 [Compound 140]
< 100	> 10	< 100	< 100	Cc1ccc(Oc2ccc(Nc3ncnc4sc5c(c34)C(C)N(C(=O)/C=C/CN(C)C)C5)cc2C)cn1 (stereo not drawn) [Compound 141, (E)-4-(dimethylamino)-1-(5-methyl-4-((3-methyl-4-((6-methylpyridin-3-yl)oxy)phenyl)amino)-5,7-dihydro-6H-pyrrolo[3′,4′:4,5]thieno[2,3-d]pyrimidin-6-yl)but-2-en-1-one]
< 100	1 to 10	< 100	< 100	COc1ccc(Oc2ccc(Nc3ncnc4sc5c(c34)CCN(C(=O)/C=C/CN3CC[C@@H](CO)C3)C5)cc2C)cn1 [Compound 143]

SMILES	IC50 (HER2 WT) [nM]	IC50 (EGFR WT) [µM]	EC50 [1] [nM]	IC50 (HER2YVMA) [nM]
Cc1cc(Nc2ncnc3sc4c(c23)CCN(C(=O)/C=C/CN(C)C)C4)ccc1Oc1ccn2ccnc2c1 [Compound 126, (E)-4-(dimethylamino)-1-(4-((4-(imidazo[1,2-a]pyridin-7-yloxy)-3-methylphenyl)amino)-5,8-dihydropyrido[4′,3′:4,5]thieno[2,3-d]pyrimidin-7(6H)-yl)but-2-en-1-one]	< 100	> 10	< 100	< 100
Cc1nc2cc(Oc3ccc(Nc4ncnc5sc6c(c45)CCN(C(=O)/C=C/CN(C)C)C6)cc3C)ccn2n1 [Compound 127, (E)-4-(dimethylamino)-1-(4-((3-methyl-4-((2-methyl-[1,2,4]triazolo[1,5-a]pyridin-7-yl)oxy)phenyl)amino)-5,6-dihydropyrido[4′,3′:4,5]thieno[2,3-d]pyrimidin-7(8H)-yl)but-2-en-1-one]	100 to 1000	> 10	< 100	< 100
C=CC(=O)N1Cc2sc3ncnc(Nc4ccc(Oc5ccc(C)nc5)c(C)c4)c3c2C(C)C1 (stereo not drawn) [Compound 142, 1-(5-methyl-4-((3-methyl-4-((6-methylpyridin-3-yl)oxy)phenyl)amino)-5,6-dihydropyrido[4′,3′:4,5]thieno[2,3-d]pyrimidin-7(8H)-yl)prop-2-en-1-one]	< 100	1 to 10	< 100	< 100
